Measurements as given in US8637511B2, “Aminopyrimidines useful as kinase inhibitors” (Vertex Pharmaceuticals Incorporated, priority 2005, dated 2014).
pIC50, pKi: −log10 of the molar value. Several values for one entry are separate records, joined by “and”; a condition that tells them apart may be missing. Equal values may be shown once. Read-outs that look alike come from different tables or passages of the source.

Assays:
Colo205 cells = experiment: Analysis of cell proliferation and viability; format: cell-based; details: Homo sapiens, read-out: IC50 value
Protocol: Colo205 cells were seeded in 96 well plates and serially diluted compound was added to the wells in duplicate. Control groups included untreated cells, the compound diluent (0.1% DMSO alone) and culture medium without cells.
To measure proliferation, 3 h prior to the end of the experiment 0.5 μCi of 3H thymidine was added to each well. Cells were then harvested and the incorporated radioactivity counted on a Wallac microplate beta-counter. Cell viability was assessed using Promega CellTiter 96AQ to measure MTS conversion. Dose response curves were calculated using either Prism 3.0 (GraphPad) or SoftMax Pro 4.3.1 LS (Molecular Devices) software.

JAK3 = target: T1, JAK3 (Homo sapiens, UniProt P52333); experiment: biochemical
T1 sequence (P52333 1-1124): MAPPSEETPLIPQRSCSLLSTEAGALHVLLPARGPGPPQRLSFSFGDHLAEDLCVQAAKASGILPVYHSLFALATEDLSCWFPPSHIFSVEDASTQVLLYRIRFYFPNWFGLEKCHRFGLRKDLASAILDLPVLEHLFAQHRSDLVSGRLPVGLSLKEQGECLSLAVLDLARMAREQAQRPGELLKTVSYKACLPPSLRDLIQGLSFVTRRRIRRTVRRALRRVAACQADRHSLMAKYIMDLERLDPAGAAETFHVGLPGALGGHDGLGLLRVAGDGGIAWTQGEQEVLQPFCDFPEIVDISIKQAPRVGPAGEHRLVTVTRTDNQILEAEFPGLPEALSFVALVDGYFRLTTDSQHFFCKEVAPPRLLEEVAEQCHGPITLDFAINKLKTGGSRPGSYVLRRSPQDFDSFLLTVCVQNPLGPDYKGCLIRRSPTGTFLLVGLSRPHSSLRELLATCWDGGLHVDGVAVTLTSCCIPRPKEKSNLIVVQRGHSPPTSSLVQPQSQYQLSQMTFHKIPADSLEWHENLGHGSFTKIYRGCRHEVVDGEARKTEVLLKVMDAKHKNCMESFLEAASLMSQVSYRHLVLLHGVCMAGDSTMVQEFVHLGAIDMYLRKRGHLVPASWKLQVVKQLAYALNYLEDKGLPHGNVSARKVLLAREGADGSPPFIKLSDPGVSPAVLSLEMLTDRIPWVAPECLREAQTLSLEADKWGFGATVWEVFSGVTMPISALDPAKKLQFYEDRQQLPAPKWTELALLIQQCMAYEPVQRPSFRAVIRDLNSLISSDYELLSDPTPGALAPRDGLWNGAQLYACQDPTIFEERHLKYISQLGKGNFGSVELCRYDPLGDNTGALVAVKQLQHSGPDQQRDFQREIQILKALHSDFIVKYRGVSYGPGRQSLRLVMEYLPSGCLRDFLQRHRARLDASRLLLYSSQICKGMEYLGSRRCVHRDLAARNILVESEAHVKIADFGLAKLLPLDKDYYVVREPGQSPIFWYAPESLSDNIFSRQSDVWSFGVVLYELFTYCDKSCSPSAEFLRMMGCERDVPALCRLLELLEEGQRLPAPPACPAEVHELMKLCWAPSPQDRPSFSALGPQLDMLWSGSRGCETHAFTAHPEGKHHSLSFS
Protocol: Reactions were carried out in a kinase buffer containing 100 mM HEPES (pH 7.4), 1 mM DTT, 10 mM MgCl2, 25 mM NaCl, and 0.01% BSA. Substrate concentrations in the assay were 5 μM ATP (200 uCi/μmole ATP) and 1 μM poly(Glu)4Tyr. Reactions were carried out at 25° C. and 1 nM JAK3.
To each well of a 96 well polycarbonate plate was added 1.5 μl of a candidate JAK3 inhibitor along with 50 μl of kinase buffer containing 2 μM poly(Glu)4Tyr and 10 μM ATP. This was then mixed and 50 μl of kinase buffer containing 2 nM JAK3 enzyme was added to start the reaction. After 20 minutes at room temperature (25 C), the reaction was stopped with 50 μl of 20% trichloroacetic acid (TCA) that also contained 0.4 mM ATP. The entire contents of each well were then transferred to a 96 well glass fiber filter plate using a TomTek Cell Harvester. After washing, 60 μl of scintillation fluid was added and ^33P incorporation detected on a Perkin Elmer TopCount.

Aurora-1 (Aurora B) = Aurora-1 (Aurora B) (Homo sapiens, UniProt Q96GD4); experiment: Aurora-1 (Aurora B) inhibition assay (radiometric); format: biochemical; details: read-out: Aurora B kinase Ki value
Chain of Aurora-1 (Aurora B) (Q96GD4 whole entry): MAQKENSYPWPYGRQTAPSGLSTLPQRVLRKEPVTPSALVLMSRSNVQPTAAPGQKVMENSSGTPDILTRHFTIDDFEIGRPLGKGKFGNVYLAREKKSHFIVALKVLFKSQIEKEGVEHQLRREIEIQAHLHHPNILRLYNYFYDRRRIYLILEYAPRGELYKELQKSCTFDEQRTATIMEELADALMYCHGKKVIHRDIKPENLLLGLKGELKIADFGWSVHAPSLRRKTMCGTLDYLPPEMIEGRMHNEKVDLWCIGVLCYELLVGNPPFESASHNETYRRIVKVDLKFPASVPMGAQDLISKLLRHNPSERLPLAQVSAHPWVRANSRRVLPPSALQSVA
Protocol: An assay buffer solution was prepared which consisted of 25 mM HEPES (pH 7.5), 10 mM MgCl2, 0.1% BSA and 10% glycerol. […] To 22 μL of the Aurora-B solution, in a 96-well plate, was added 2 μl of a compound stock solution in DMSO and the mixture allowed to equilibrate for 10 minutes at 25° C. The enzyme reaction was initiated by the addition of 16 μl stock [γ-^33P]-ATP solution (˜20 nCi/μL) prepared in assay buffer, to a final assay concentration of 800 μM. The reaction was stopped after 3 hours by the addition of 16 μL 500 mM phosphoric acid and the levels of ^33P incorporation into the peptide substrate were determined by the following method.
A phosphocellulose 96-well plate (Millipore, Cat no. MAPHNOB50) was pre-treated with 100 μL of a 100 mM phosphoric acid prior to the addition of the enzyme reaction mixture (40 μL). The solution was left to soak on to the phosphocellulose membrane for 30 minutes and the plate subsequently washed four times with 200 μL of a 100 mM phosphoric acid. […] Levels of non-enzyme catalyzed background radioactivity were determined by adding 16 μL of the 500 mM phosphoric acid to control wells, containing all assay components (which acts to denature the enzyme), prior to the addition of the [γ-^33P]-ATP solution. Levels of enzyme catalyzed. ^33P incorporation were calculated by subtracting mean background counts from those measured at each inhibitor concentration. […] Ki values were calculated from initial rate data by non-linear regression using the Prism software package (Prism 3.0, Graphpad Software, San Diego, Calif.).

Aurora-2 (Aurora A) = target: T2, Aurora-2 (Aurora A) (Homo sapiens, UniProt O14965); experiment: Aurora-2 (Aurora A) inhibition assay, coupled enzyme; format: biochemical; details: read-out: Aurora A kinase Ki value
T2 sequence (O14965 1-403): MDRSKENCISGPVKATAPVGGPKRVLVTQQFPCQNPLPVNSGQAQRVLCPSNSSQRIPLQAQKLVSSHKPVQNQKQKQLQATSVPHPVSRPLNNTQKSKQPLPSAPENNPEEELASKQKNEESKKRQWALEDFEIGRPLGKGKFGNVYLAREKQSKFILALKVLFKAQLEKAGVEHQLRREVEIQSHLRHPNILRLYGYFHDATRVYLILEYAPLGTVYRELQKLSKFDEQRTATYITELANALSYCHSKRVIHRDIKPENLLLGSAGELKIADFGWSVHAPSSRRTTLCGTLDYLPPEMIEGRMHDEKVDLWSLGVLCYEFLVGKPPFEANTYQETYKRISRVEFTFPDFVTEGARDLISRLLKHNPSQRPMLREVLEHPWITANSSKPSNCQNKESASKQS
Protocol: Assays were carried out in a mixture of 100 mM Hepes (pH7.5), 10 mM MgCl2, 1 mM DTT, 25 mM NaCl, 2.5 mM phosphoenolpyruvate, 300 μM NADH, 30 μg/ml pyruvate kinase and 10 μg/ml lactate dehydrogenase. […] Assays were carried out at 30° C. and in the presence of 40 nM Aurora-2.
The plate was preincubated for 10 minutes at 30° C. and the reaction initiated by addition of 10 μl of Aurora-2. Initial reaction rates were determined with a Molecular Devices SpectraMax Plus plate reader over a 10 minute time course. IC50 and Ki data were calculated from non-linear regression analysis using the Prism software package (GraphPad Prism version 3.0cx for Macintosh, GraphPad Software, San Diego Calif., USA).

[1] = COLO 205, Colo205 cells, incubated for 96 hours
[2] = COLO 205, Colo205 cells, incubated for 72 hours

SMILES	pIC50 (Colo205 cells; [1])	pKi (JAK3)	pIC50 (Colo205 cells; [2])	pIC50 (Colo205 cells; COLO 205, 72 h)	pIC50 (Colo205 cells; COLO 205, 96 h)	pKi (Aurora-1 (Aurora B))	pKi (Aurora-2 (Aurora A))
CCC(=O)Nc1ccc(Sc2nc(Nc3cc(C)n[nH]3)cc(N3CC(O)(C(C)C)C3)n2)cc1 [Compound 99]	≥ 7.30	≥ 8.00					
Cc1cc(Nc2cc(N3CC(F)(C4CC4)C3)nc(Sc3ccc(NC(=O)C4CC4(F)F)cc3)n2)[nH]n1 (centres unmarked) [Compound 194]		6.30 to 8.00	≥ 7.52				
Cc1cc(Nc2cc(N3CC(O)(C4CC4)C3)nc(Sc3ccc(NC(=O)C4CC4)cc3F)n2)[nH]n1 [Compound 110]	≥ 7.30	≥ 8.00					
Cc1cc(Nc2cc(N3CC(F)(C4CC4)C3)nc(Sc3ccc(NC(=O)CC4CC4)cc3)n2)[nH]n1 [Compound 171]		5.70 to 6.30	6.70 to 7.52				
Cc1cc(Nc2cc(N3CC(O)(C4CC4)C3)nc(Sc3ccc(NC(=O)C4CC4)cc3)n2)n[nH]1 [Compound 103]		6.30 to 8.00		6.70 to 7.52	≥ 7.30		
Cc1cc(Nc2cc(N3CC(O)(C4CC4)C3)nc(Sc3ccc(NC(=O)C4CC4(F)F)cc3)n2)[nH]n1 (centres unmarked) [Compound 113]		≥ 8.00	≥ 7.52				
CCC(=O)Nc1ccc(Sc2nc(Nc3cc(C)n[nH]3)cc(N3CC(O)(C4CC4)C3)n2)cc1 [Compound 85]	≥ 7.30	6.30 to 8.00	≥ 7.52				
Cc1cc(Nc2cc(N3CC(O)(C4CC4)C3)nc(Sc3ccc(NC(=O)C4CCCC4)cc3)n2)[nH]n1 [Compound 104]	≥ 7.30	6.30 to 8.00					
Cc1cc(Nc2cc(N3CC(F)(C4CC4)C3)nc(Sc3ccc(NC(=O)C4CC4)cc3F)n2)n[nH]1 [Compound 170]		6.30 to 8.00	≥ 7.52				
Cc1cc(Nc2cc(N3CC(F)(C4CC4)C3)nc(Sc3ccc(NC(=O)CC(F)(F)F)cc3)n2)[nH]n1 [Compound 135]		≥ 8.00		≥ 7.52	≥ 7.30		
CCC(=O)Nc1ccc(Sc2nc(Nc3cc(C)n[nH]3)cc(N3CC(O)(C(C)CC)C3)n2)cc1 (centres unmarked) [Compound 100]	≥ 7.30	6.30 to 8.00					
Cc1cc(Nc2cc(N3CC(F)(C4CC4)C3)nc(Sc3ccc(NC(=O)C4CC4)cc3)n2)n[nH]1 [Compound 128]		6.30 to 8.00		6.70 to 7.52	≥ 7.30		
Cc1cc(Nc2cc(N3CCC3)nc(Sc3ccc(NC(=O)c4ncccc4C)cc3)n2)[nH]n1 [Compound 200]			< 6.70			5.70 to 7.30	6.70 to 8.30
Cc1cc(Nc2cc(N3CC4(CCCO4)C3)nc(Sc3ccc(NC(=O)C4CC4)cc3)n2)[nH]n1 [Compound 123]			6.70 to 7.52			≥ 8.00	8.30 to 9.00
CCC1(F)CN(c2cc(Nc3cc(C)n[nH]3)nc(Sc3ccc(NC(=O)CC(F)(F)F)cc3)n2)C1 [Compound 196]			≥ 7.52			≥ 8.00	≥ 9.00
Cc1cc(Nc2cc(N3CCC3)nc(Sc3ccc(NC(=O)c4cccnc4C)cc3)n2)[nH]n1 [Compound 63]	< 6.00					7.30 to 8.00	6.70 to 8.30
Cc1cc(Nc2cc(N3CC(F)(C4CC4)C3)nc(Sc3ccc4c(c3)N(C)C(C(F)(F)F)N4)n2)[nH]n1 (centres unmarked) [Compound 156]	6.00 to 7.30		6.70 to 7.52			7.30 to 8.00 and > 7.60	≥ 9.00
Cc1cc(Nc2cc(N3CCC3)nc(Sc3ccc(-n4ccccc4=O)cc3)n2)[nH]n1 [Compound 47]	< 6.00					5.70 to 7.30	6.70 to 8.30
CCOP(=O)(O)OC1(C)CN(c2cc(Nc3cc(C)n[nH]3)nc(Sc3ccc(NC(=O)c4ccccc4C(F)(F)F)cc3)n2)C1 [Compound 129]			< 6.70			≥ 8.00	≥ 9.00
COC1(C2CC2)CN(c2cc(Nc3cc(C)[nH]n3)nc(Sc3ccc(NC(=O)C4CC4)cc3)n2)C1 [Compound 118]			≥ 7.52			≥ 8.00	≥ 9.00
CCCCOC1(C2CC2)CN(c2cc(Nc3cc(C)n[nH]3)nc(Sc3ccc(NC(=O)C4CC4)cc3)n2)C1 [Compound 111]	≥ 7.30					≥ 8.00	≥ 9.00
Cc1cc(Nc2cc(N3CCC3)nc(Sc3ccc(NC(=O)c4sc(C)nc4C)cc3)n2)n[nH]1 [Compound 41]	6.00 to 7.30					5.70 to 7.30	6.70 to 8.30
CCN(CC)C(=O)Nc1ccc(Sc2nc(Nc3cc(C)[nH]n3)cc(N3CCC3)n2)cc1 [Compound 72]	< 6.00					5.70 to 7.30	6.70 to 8.30
CCC(=O)Nc1ccc(Sc2nc(Nc3cc(C)n[nH]3)cc(N3CC(N4CCC4)C3)n2)cc1 [Compound 70]	≥ 7.30					5.70 to 7.30	8.30 to 9.00
Cc1cc(Nc2cc(NCC3(C)COC3)nc(Sc3ccc(NC(=O)c4ccccc4Cl)cc3)n2)[nH]n1 [Compound 208]			6.70 to 7.52			≥ 8.00	≥ 9.00
